In patent publication US20230227505A1, “IDENTIFICATION AND APPLICATION OF ALV-J MHC-B2 R[…] PEPTIDE” (South China Agricultural University, priority 2022, published 2023):

Test system: spleen lymphocytes of B2-haplotype chicken infected with ALV-J
Assay: IFN-γ ELISpot assay detecting immunogenicity of candidate peptides
Assay type: cell-based
Settings: peptide 10 μg/mL as stimulant, spleen lymphocytes of B2-haplotype chicken infected for 28 d; for IFN-γ ELISpot spots generated compared with the negative control group: 24-48 h; for IFN-γ ELISpot spots, significance versus negative control (immunogenic T cell epitope): P<0.05, three independent replications
Experimental: The B2-haplotype chicken infected for 28 d (day) in 2.1 is taken, and the spleen lymphocytes of the chicken are isolated according to the kit instructions of the chicken organ tissue mononuclear cell isolation solution, and an ELISpot assay is performed to detect the immunogenicity of candidate peptide epitopes. The specific steps are as follows:
(1) PVDF 96-well plate activation: 15 μL 35% ethanol is added to each well for reaction for less than 1 min, and then the wells are washed five times with sterile water.
(2) Antibody coating: the anti-chicken IFN-γ is diluted to 15 μg/mL, and 100 μL of that is added to each well, and the mixture is incubated at 4° C. overnight.
(3) Blocking: the coating solution is discarded, followed by washing 5 times with DPBS, and the plate is dried on the sterilized absorbent paper. RMPI 1640 medium containing 10% FBS is added to PVDF 96-well plate at 200 μL/well and the reaction is blocked at room temperature for 30 min.
(4) Stimulation: the blocking solution is discarded and 100 μL of prepared lymphocyte suspension at the concentration of 5*10^6 cells/mL is added to each well. At the same time, 50 μL diluted antigenic peptide is added to the experimental group at the final concentration of 10 μg/mL, PMA at the final concentration of 10 μg/mL is added to the positive control group, and no irritant is added to the negative control group. After all the samples are added, PVDF 96-well plate is placed in CO2 incubator at 37° C. for 24-48 h.
(5) Incubation of secondary antibody: after the culture, the cells are shaken off and the plate is washed five times with DPBS. Then 100 μL biotinylated secondary antibody with a concentration of 1 μg/mL is added to each well and the plate is incubated for 2 h at room temperature.
(6) HRP incubation: the secondary antibody solution is discarded and washed with DPBS for 5 times. Then 100 μL streptavidin-labeled HRP is added to the well and incubated at room temperature for 1 h.
(7) Color development: the HRP incubation solution is discarded and the plate is washed with DPBS for 5 times. Then 100 μL TMB color-developing substrate is added to each well followed by incubation at room temperature or 37° C. for 15-30 min. When obvious spots appeared in the positive control group, the color-developing solution could be discarded. the color development is stopped with pure water and the plate is read after air drying.

Row | Sequence | IFN-γ ELISpot spots generated compared with the negative control group | IFN-γ ELISpot spots, significance versus negative control (immunogenic T cell epitope)
1 | SALQAFREV (ALV-J-61) | could generate spots | significantly produce more spots
2 | FVDFANRLI (ALV-J-59) | could generate spots | significantly produce more spots
3 | TVDTASSAI (ALV-J-52) | could generate spots | significantly produce more spots
